Reference: US20100267636A1, “USE OF CYTOCHROME P450-METABOLIZED DRUGS AND GRF MOLECULES IN COMBINATION THERAPY” (THERATECHNOLOGIES INC., priority 2009, published 2010)
One block for each compound: values may come before it.

Tests used:
[1] = Plasma PK of simvastatin and simvastatin acid with (Treatment A) and without (Treatment B) TH9507, two-way crossover studies; format: in vivo; conditions: human; for half-life / AUC(0-inf) / AUC(0-t) / Cmax / Tmax: both sexes, 80 mg
Protocol: […] […] N=58 healthy adult (male and female) subjects were enrolled. Dosing occurred in two groups. […] PK/statistics: PK parameters were calculated using standard noncompartmental approaches. […] The final ANOVA models included group, sequence, treatment, and period nested within group as fixed effects and subject nested within group-by-sequence as a random effect. The treatment-by-group term was excluded from the models for the groups combined, to be conservative.

[2] = Plasma PK of TH9507 in simvastatin studies (ELISA); format: in vivo, human
Protocol: 2 ml of TH9507 (1 mg/ml injectable solution) was administered by subcutaneous injection under fasting conditions once daily for 7 consecutive days (daily dose of 2 mg TH9507).
N=58 healthy adult (male and female) subjects were enrolled. Dosing occurred in two groups.
PK/statistics: PK parameters were calculated using standard noncompartmental approaches.

CYP3A = assay: Impact of TH9507 on CYP3A activity (simvastatin drug interaction studies); format: in vivo, human; conditions: 2 mg TH9507 days 1 to 7, 80 mg simvastatin as CYP3A substrate on Day 6
Text: The final ANOVA models included group, sequence, treatment, and period nested within group as fixed effects and subject nested within group-by-sequence as a random effect. The treatment-by-group term was excluded from the models for the groups combined, to be conservative.

[3] = both sexes, human, plasma, sc, 2 mg

half-life ([1]; plasma, po, read-out: T1/2, Treatment B (converted)): 8.56 h | half-life ([1]; plasma, sc, read-out: T1/2, Treatment A (converted)): 7.62 h
SMILES: CCC(C)(C)C(=O)O[C@H]1C[C@@H](C)C=C2C=C[C@H](C)[C@H](CC[C@@H]3C[C@@H](O)CC(=O)O3)[C@H]21 [Simvastatin, (1S,3R,7S,8S,8aR)-8-{2-[(2R,4R)-4-hydroxy-6-oxooxan-2-yl]ethyl}-3,7-dimethyl-1,2,3,7,8,8a-hexahydronaphthalen-1-yl 2,2-dimethylbutanoate, reference compound]

AUC(0-inf) ([1]; in vivo, po): 46.8 ng·h/mL | AUC(0-t) ([1]; in vivo, po): 43.4 ng·h/mL | Cmax ([1]; in vivo, po): 4.33 ng/mL | Tmax ([1]; in vivo, po): 4.5 h | half-life ([1]; in vivo, po): 8.07 h | AUC(0-inf) ([1]; in vivo, sc): 39.9 ng·h/mL | AUC(0-t) ([1]; in vivo, sc): 37.5 ng·h/mL | Cmax ([1]; in vivo, sc): 4.28 ng/mL | Tmax ([1]; in vivo, sc): 4.5 h | half-life ([1]; in vivo, sc): 6.91 h | AUC0-inf, A/B Ratio (%) ([1]; both, in vivo): 85.2% | AUC0-t, A/B Ratio (%) ([1]; both, in vivo): 86.3% | Cmax, A/B Ratio (%) ([1]; both, in vivo): 99.0%
SMILES: CCC(C)(C)C(=O)O[C@H]1C[C@@H](C)C=C2C=C[C@H](C)[C@H](CC[C@@H](O)C[C@@H](O)CC(=O)O)[C@H]21 [Simvastatin Acid, simvastatin acid]

SMILES: CC/C=C/CC(=O)N[C@@H](Cc1ccc(O)cc1)C(=O)N[C@@H](C)C(=O)N[C@@H](CC(=O)O)C(=O)N[C@@H](C)C(=O)N[C@H](C(=O)N[C@@H](Cc1ccccc1)C(=O)N[C@H](C(=O)N[C@@H](CC(N)=O)C(=O)N[C@@H](CO)C(=O)N[C@@H](Cc1ccc(O)cc1)C(=O)N[C@@H](CCCNC(=N)N)C(=O)N[C@@H](CCCCN)C(=O)N[C@H](C(=O)N[C@@H](CC(C)C)C(=O)NCC(=O)N[C@@H](CCC(N)=O)C(=O)N[C@@H](CC(C)C)C(=O)N[C@@H](CO)C(=O)N[C@@H](C)C(=O)N[C@@H](CCCNC(=N)N)C(=O)N[C@@H](CCCCN)C(=O)N[C@@H](CC(C)C)C(=O)N[C@@H](CC(C)C)C(=O)N[C@@H](CCC(N)=O)C(=O)N[C@@H](CC(=O)O)C(=O)N[C@H](C(=O)N[C@@H](CCSC)C(=O)N[C@@H](CO)C(=O)N[C@@H](CCCNC(=N)N)C(=O)N[C@@H](CCC(N)=O)C(=O)N[C@@H](CCC(N)=O)C(=O)NCC(=O)N[C@@H](CCC(=O)O)C(=O)N[C@@H](CO)C(=O)N[C@@H](CC(N)=O)C(=O)N[C@@H](CCC(N)=O)C(=O)N[C@@H](CCC(=O)O)C(=O)N[C@@H](CCCNC(=N)N)C(=O)NCC(=O)N[C@@H](C)C(=O)N[C@@H](CCCNC(=N)N)C(=O)N[C@@H](C)C(=O)N[C@@H](CCCNC(=N)N)C(=O)N[C@@H](CC(C)C)C(N)=O)[C@@H](C)CC)C(C)C)[C@@H](C)O)[C@@H](C)CC [TH9507, (hexenoyl trans-3)hGRF(1-44)NH2]
Tmax ([2]; TH9507 2 mg s.c. once daily, day 6 samples, simvastatin studies, median): 9 min | AUC(0-inf) [2, 3]: 1.05 ng·h/mL | AUC(0-t) [2, 3]: 0.888 ng·h/mL | Cmax [2, 3]: 3.36 ng/mL | half-life [2, 3]: 8.4 min | impact on CYP3A activity (CYP3A): not significant
